The values below come from patent publication US20190315775A1, “MODIFIED […] AND PHARMACEUTICAL COMPOSITION HAVING SAME AS ACTIVE INGREDIENT” (KEIO UNIVERSITY, priority 2016, published 2019).

The nature of series [1]: Stability in mouse blood plasma. Format: in vitro ADME. From the text:
Subsequently, PEG11(E)-TC11 was examined for stability in mouse blood plasma (A) and in medium (B). […] Such degradation is considered to result from a small amount of esterase in FBS (fetal calf serum) contained in the medium.

The subject of series [2] is various high-risk MM cells (KMM1, KMS11, KMS21, KMS26, KMS27, KMS28, KMS34, MUM24). Kind of series: MTT cell viability of various MM cells, PEG11(E)-TC11 vs lenalidomide (Example 9). Format: cell-based, human. The conditions noted are these: 48 hours, FIG. 5A.
For series [3], the system named is KMS21 high-risk MM cell line. The series can be described thus: WST-1 cell proliferation inhibition (Example 8), KMS21. Format: cell-based. The conditions noted are these: Homo sapiens, WST-1, 48 hours, read-out: IC50, cell proliferation inhibitory activity, KMS21. As to the method:
Similar to Example 7, high-risk MM cell lines were treated with drugs, TC11 and PEG5(E)-TC11 at arbitrary concentrations. […] Specifically, each high-risk MM cell line was prepared at 5×10^5 cells/ml, and then seeded at 50 μl per well (2.5×10^4 cells). Drugs such as TC11, and PEG5(E)-TC11 were added to wells at arbitrary concentrations. WST-1 reagent was added at 48 hours after addition of drugs. After 1 hour of reaction at 37° C. in a CO2 incubator, absorbance was measured at a wavelength of 450 nm using a microplate reader. Cell viability was found from an absorbance ratio using absorbance at 0 μM designated as 100%. IC50 was calculated from a semi-logarithmic chart using Microsoft (registered trademark) Excel.
(Tetrazolium assays rely on reduction of a dye to a coloured formazan, in cell work by metabolically active cells.)

Series [4] has as its target T1, cereblon (CRBN) (Homo sapiens, UniProt Q96SW2).
T1 construct: recombinant full-length CRBN prepared by the above method was reacted with the beads; T7 tag (N); FLAG tag (C); made in house; host or cells: 293T cells (pcDNA3.3 vector), RIPA extract purified on Ni Sepharose excel
The series can be described thus: Pull-down assay of cereblon with biotinylated drug on streptavidin beads. In kind it is binding. The conditions noted are these: 30° C., 30 minutes, FIG. 9A. As to the method:
CRBN was prepared as follows. A T7 tag was added 5′-upstream of, and a FLAG tag and a histidine tag were added 3′-downstream of a full-length CRBN gene. The gene was introduced into a pcDNA3.3 expression vector (Invitrogen), thereby constructing a plasmid DNA. Next, a Kozak sequence was added 5′-upstream of the T7 tag using a KOD-Plus-Mutagenesis Kit (TOYOBO). The plasmid DNA was transfected into 293T cells. After 4 days of culture at 37° C. with 5% CO2, cells were extracted with a RIPA buffer (Thermo), and then the extracted fraction was purified using Ni Sepharose excel (GE Healthcare). Since the purified fraction contained imidazole, TBS (Nacalai Tesque) was subjected to buffer exchange. […] Centrifugation was performed to separate the resultants into a flow-through (F) fraction and a bead (B) fraction. Protein bands corresponding to CRBN were separated by SDS-PAGE, and then detected by Western blot. […] Note that “I” indicates “Input fraction”.

Series [5] can be described thus: Mouse blood kinetics upon single intraperitoneal administration. Format: in vivo. The conditions noted are these: male, ICR, plasma, ip, mice, single intraperitoneal TC11 60 mg/kg BW. As to the method:
First, PEG11(E)-TC11(A) and PEG11(O)-TC11(B) were examined for stability in mouse blood. To 5-week-old male ICR mice (CLEA Japan, Tokyo, Japan), PEG11(E)-TC11 and PEG11(O)-TC11 were administered intraperitoneally at 59.1 mg/kg BW and 54.6 mg/kg BW, respectively, in such a manner that each molar concentration was equivalent to that of 20 mg/kg BW of TC11. At 0, 0.5, 1, 1.5, 4, 8, 12, and 24 hours later, a tail vein was punctured with a 26G needle for bleeding, and then about 100 μL of blood was collected using a heparinized hematocrit capillary tube (Terumo, Tokyo, Japan). After blood collection, blood was transferred into a 0.5-mL tube, and then subjected to centrifugation at 4° C. and 3,400 G for 15 minutes. Subsequently, the supernatant was collected, and then cryopreserved at −80° C. A quality control serum, Consera (registered trademark) (Nissui pharmaceutical, Tokyo, Japan) was dissolved in 3 mL of distilled water (dH2O) per bottle. After left to stand for 30 minutes, bottles were turned upside-down (mixing by inversion) and then used. Consera (190 μL) was mixed with the collected blood plasma and 10 μL of urine, thereby preparing samples. Moreover, PEG11(E)-TC11 and HOEtO-TC11 were each diluted with dH2O in such a manner that the concentrations were 0, 2, 4, 6, 8, and 10 μM, and then 10 μL of the solution at each concentration and 190 μL of Consera were mixed, thereby preparing a calibration curve sample. […]
HPLC analysis was conducted using Inertsil (registered trademark) ODS-3 […]×Φ4.6 mm as a stationary phase, CH3CN:dH2O=50:50 as a mobile phase, a flow rate of 0.70 mL/min, a UV detection wavelength of 267 nm, and an excitation wavelength of 380 nm, a fluorescence wavelength of 530 nm, and an injection amount of 10 μL at a column temperature of 25° C.
PEG11(E)-TC11 was examined. […] Note that as described in Example 7, since PEG11(E)-TC11 is quickly hydrolyzed by esterase in blood and then converted to HOEtO-TC11, the blood HOEtO-TC11 level was measured.

T1 sequence (Q96SW2 whole entry): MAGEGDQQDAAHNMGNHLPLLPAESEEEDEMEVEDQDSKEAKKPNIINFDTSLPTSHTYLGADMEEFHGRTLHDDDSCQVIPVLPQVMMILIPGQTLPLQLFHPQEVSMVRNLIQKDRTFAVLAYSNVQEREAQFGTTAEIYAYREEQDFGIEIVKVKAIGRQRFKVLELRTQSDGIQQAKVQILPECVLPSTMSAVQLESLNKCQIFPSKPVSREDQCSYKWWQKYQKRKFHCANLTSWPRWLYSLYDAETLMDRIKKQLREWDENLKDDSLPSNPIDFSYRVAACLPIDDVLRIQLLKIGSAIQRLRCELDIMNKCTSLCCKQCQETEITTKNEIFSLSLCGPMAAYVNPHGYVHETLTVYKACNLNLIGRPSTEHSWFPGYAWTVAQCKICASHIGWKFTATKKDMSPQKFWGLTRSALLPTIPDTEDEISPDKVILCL

With `COCCOCCOCCOCCOCCOCCOCCOCCOCCOCCOCCOCCC(=O)OCCOc1cc2c(cc1N)C(=O)N(c1c(C(C)C)cccc1C(C)C)C2=O` [PEG11(E)-TC11], the “Stability in mouse blood plasma” value in series [1] is listed as “very quickly hydrolyzed by esterase in mouse blood plasma”. In series [2], the “In vitro cell proliferation inhibitory activity against various high-risk MM cells” value is given as “significant in vitro cell proliferation inhibitory activity”.
As for `CC(C)c1cccc(C(C)C)c1N1C(=O)c2ccc(N)cc2C1=O` [TC11, 2-(2,6-di-isopropylphenyl)-5-amino-1H-isoindole-1,3-dione, reference compound], the IC50 in series [3] was found to be 1600 nM. The “Binding of CRBN to drug immobilized on beads (pull-down, Western blot)” value in series [4] was “did not bind”. In addition, the Cmax in series [5] (read-out: Cmax, highest blood level) came to 2600 nM. Besides, in series [5] (read-out: t1/2, serum half-life (converted)), the half-life is 1.4 h. For the same molecule, the Tmax in series [5] (read-out: tmax, time at which the blood level reached the highest level) was determined as 1.5 h.

For orientation: Cmax means the highest concentration seen after dosing. As a reminder, the Tmax is the time at which the peak concentration occurs.
